# Target: T1, intermediate conductance, calcium activated potassium channel (Gardos channel) in red blood cells (Homo sapiens, UniProt O15554)
# T1 construct: endogenous in cells; host or cells: red blood cells from heparinized whole blood
# Assay: 86Rb flux assay for inhibition of the Gardos channel in red blood cells (Example 4)
# Type: cell-based
# Settings: CaCl2 and A23187
# Procedure: Activities for selected compounds of the invention were determined using the assay set forth in Example 4, and are presented in Table 1.
# Example 4 illustrates the use of a rubidium flux assay to determine the activity of the compounds of the invention.
# Example 4 describes a bioassay for measuring the inhibition of a calcium activated potassium channel, the Gardos channel, in red blood cells by the compounds of the invention.
# Heparinized whole blood was washed three times with Modified Flux Buffer (MFB: 140 mM NaCl; 5 mM KCl; 10 mM Tris; 0.1 mM EGTA; pH=7.4). Red blood cells (“RBCs”) at an approximate 10% hematocrit. Washed cells were then incubated for 3 hours with ^86Rb (5 μCi/mL). After this incubation period, the RBCs were washed three times with cold MFB. Washed ^86Rb loaded RBCs were then incubated with a test compound of the invention for 10 minutes. ^86Rb flux was then initiated by the addition of 10 μL/mL of a MFB solution containing 10 mM CaCl2 and 100 μM A23187, a calcium ionophore. This yielded a final concentration of 100 μM CaCl2 and […] A23187 n the incubation medium. Cells were incubated for 10 minutes, spun down and the supernatant was removed. Samples were counted in a Wallace Microbeta liquid scintillation counter by Cerenkov emission. Total RBC ^86Rb content was determined by lysing the RBCs with water and then precipitating protein using a 50:50 mixture of ethanol:chloroform. After a 20 minute microfuge spin, the aqueous and organic layers separated and the aqueous layer was removed and counted. Efflux is expressed as a percentage of the initial cell content of ^86Rb.
row,SMILES,"Activity (relative potencies in the intermediate conductance, calcium activated potassium channel blocker assay, IC50 class)"
1,"COC(=O)C1=C(NS(=O)(=O)c2cccc(C(F)(F)F)c2)CCCC1 [Compound 31, 2-(3-trifluoromethyl-benzenesulfonylamino)-cyclohex-1-enecarboxylic Acid Methyl Ester]",++ (++ represents 2 μM < IC50 < 0.5 μM)
2,"O=S(=O)(Nc1ccccc1-c1ncco1)c1cccc(C(F)(F)F)c1 [Compound 74, N-(2-Oxazol-2-yl-phenyl)-3-trifluoromethyl-benzenesulfonamide]",++ (++ represents 2 μM < IC50 < 0.5 μM)

# Results, then the molecule that gave them:
row,"Activity (relative potencies in the intermediate conductance, calcium activated potassium channel blocker assay, IC50 class)",SMILES
1,++ (++ represents 2 μM < IC50 < 0.5 μM),"Cc1noc(-c2ccccc2NS(=O)(=O)c2cccc(C(F)(F)F)c2)n1 [Compound 82, N-[2-(3-methyl-[1,2,4]oxadiazol-5-yl)-phenyl]-3-trifluoromethyl-benzenesulfonamide]"
2,++ (++ represents 2 μM < IC50 < 0.5 μM),"COc1noc(-c2ccccc2NS(=O)(=O)c2cccc(C(F)(F)F)c2)n1 [Compound 83, N-[2-(3-methoxy-[1,2,4]oxadiazol-5-yl)-phenyl]-3-trifluoromethyl-benzenesulfonamide]"
3,++ (++ represents 2 μM < IC50 < 0.5 μM),"COC(=O)c1ccccc1CS(=O)(=O)c1cccc(C(F)(F)F)c1 [Compound 95, 2-(3-Trifluoromethyl-benzenesulfonylmethyl)-benzoic Acid Methyl Ester]"
4,+ (+ Represents 10 μM < IC50 < 2 μM),"COC(=O)c1ccccc1CSc1cccc(C(F)(F)F)c1 [Compound 96, 2-(3-Trifluoromethyl-phenylsulfanylmethyl)-benzoic Acid Methyl Ester]"

# Same assay, conditions: CaCl2 and A23187, read-out: Activity (relative potencies in the intermediate conductance, calcium activated potassium channel blocker assay, IC50 class)
row,IC50,SMILES
1,< 500 nM,"COc1ccc(NS(=O)(=O)c2cccc(C(F)(F)F)c2)c(-c2ncco2)c1 [Compound 40, N-(4-Methoxy-2-oxazol-2-yl-phenyl)-3-trifluoromethyl-benzenesulfonamide]"
2,< 500 nM,"COc1cc(NS(=O)(=O)c2cccc(C(F)(F)F)c2)c(-c2nc(C)no2)cc1OC [Compound 41, N-[4,5-dimethoxy-2-(3-methyl-[1,2,4]oxadiazol-5-yl)-phenyl]-3-trifluoromethyl-benzenesulfonamide]"
3,< 500 nM,"O=S(=O)(Nc1ccccc1-c1ccco1)c1cccc(C(F)(F)F)c1 [Compound 76, N-(2-furan-2-yl-phenyl)-3-trifluoromethyl-benzenesulfonamide]"
